In publication PMC6934184, “Selective DNA-PKcs inhibition extends the therapeutic index of localized radiotherapy and chemotherapy” (The Journal of Clinical Investigation, 2019):

Biological target: T1, PIM2 (Homo sapiens, UniProt Q9P1W9)
T1 construct: purchased Thermo Fisher Scientific (Life Technologies) SelectScreen
Assay: SelectScreen Z'LYTE
Assay type: biochemical
Procedure, shortened: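 NU5455 was profiled across the SelectScreen Broad panel of kinase activity and binding assays. Z'LYTE reactions such as CSF1R ran at apparent Km ATP, while the Adapta CAMK1 assay used ATP listed as 10. Values are given as percent.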

T1 sequence (Q9P1W9 whole entry): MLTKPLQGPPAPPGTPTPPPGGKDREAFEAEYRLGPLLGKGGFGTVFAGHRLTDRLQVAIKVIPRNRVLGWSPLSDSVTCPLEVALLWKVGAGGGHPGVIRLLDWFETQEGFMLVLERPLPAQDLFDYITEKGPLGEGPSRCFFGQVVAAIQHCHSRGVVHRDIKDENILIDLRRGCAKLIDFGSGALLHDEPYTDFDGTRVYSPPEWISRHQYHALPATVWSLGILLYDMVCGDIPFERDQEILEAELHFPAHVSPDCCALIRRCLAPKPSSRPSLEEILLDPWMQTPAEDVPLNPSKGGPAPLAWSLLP

SMILES: CN(C(=O)CN1CCOCC1)c1ccc2sc3c(-c4cccc5c(=O)cc(N6CC7CCC(C6)O7)oc45)cccc3c2c1 [NU5455]
- inhibition at 1 µM: -4.3%
